Reference: patent US20250223307A1, “MDM2/MDMX DOUBLE-TARGET INHIBITOR COMPOUND, PRODRUG, PHARMACEUTICAL COMPOSITION, AND PREPARATION METHOD THEREFOR AND USE THEREOF” (GLOBAL HEALTH DRUG DISCOVERY INSTITUTE, priority 2022, published 2025)
pIC50: −log10 of the molar value.

What was measured:
[1] = tested on: Blood cancer cells RS4; 11; assay: CellTiter Glo test: growth inhibition of cells; assay type: cell-based; conditions: Homo sapiens, 11 cells, 72 h, cell viability
Procedure: Test of Candidate Compounds on Growth Inhibition of Cells Determined by CellTiter Glo
Blood cancer cells RS4; 11 were inoculated into the 96-well cell culture plate through Multidrop 3000 cells per well, with a volume of 100 μL. The final compound concentration ranged from 50 μM to 0.01 μM at 9 concentration gradients and the DMSO final concentration was 0.1%. The cells and compounds were co-incubated in a cell incubator at 37° C. for 72 h, a CellTiter-Glo Luminescent Cell Viability Assay reagent was added 100 μL/well, the cells and compound were uniformly mixed and incubated at room temperature for 10 min, and Envision reading was performed. A sample treated with 50 μM of a positive compound was taken as a positive control and a sample treated with 100 nL of DMSO was taken as a negative control.

[2] = molecular target: MDM2 (Homo sapiens, UniProt Q00987); assay: HTRF test: inhibition of MDM2-p53 protein binding
[3] = molecular target: T1, MDMX (Homo sapiens, UniProt O15151); assay: HTRF test: inhibition of MDMX-p53 protein binding
T1 sequence (O15151 2-134): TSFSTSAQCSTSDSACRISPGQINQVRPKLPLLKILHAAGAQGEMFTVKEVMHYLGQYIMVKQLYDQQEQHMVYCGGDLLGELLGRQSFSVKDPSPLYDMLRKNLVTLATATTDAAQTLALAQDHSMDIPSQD

Sequence of MDM2 (Q00987 2-138): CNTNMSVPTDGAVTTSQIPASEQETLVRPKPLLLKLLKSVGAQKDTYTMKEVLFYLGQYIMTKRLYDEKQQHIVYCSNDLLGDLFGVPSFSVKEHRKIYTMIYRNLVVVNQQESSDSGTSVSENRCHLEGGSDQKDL

Row | pIC50 [1] | pIC50 [2] | pIC50 [3] | Structure (SMILES)
1 | ≥ 6.00 | 7.00 to 8.00 | 7.00 to 8.00 | C#Cc1ccc(CN2C(=O)N/C(=C\c3c[nH]c4c(F)c(Cl)ccc34)C2=O)cc1 [Compound 17, (Z)-5-((6-chloro-7-fluoro-1H-indol-3-yl)methylene)-3-(4-acetenylbenzyl)imidazolidine-2,4-dione]
2 | ≥ 6.00 | 7.00 to 8.00 | 7.00 to 8.00 | N#Cc1cccc(CN2C(=O)N/C(=C\c3c[nH]c4c(F)c(Cl)ccc34)C2=O)c1 [Compound 18, (Z)-3-((4-((6-chloro-7-fluoro-1H-indol-3-yl)methylene)-2,5-dioxoimidazolidin-1-yl)methyl)benzonitrile]
3 | ≥ 6.00 | > 8.00 | > 8.00 | Cc1c(Cl)ccc2c(/C=C3\NC(=O)N(Cc4ccc(C#N)cc4)C3=O)c[nH]c12 [Compound 19, (Z)-4-((4-((6-chloro-7-methyl-1H-indol-3-yl)methylene)-2,5-dioxoimidazolidin-1-yl)methyl)benzonitrile]
4 | ≥ 6.00 | 7.00 to 8.00 | 7.00 to 8.00 | N#Cc1ccc(CN2C(=O)N/C(=C\c3c[nH]c4cc(Cl)ccc34)C2=O)cc1F [Compound 20, (Z)-4-((4-((6-chloro-1H-indol-3-yl)methylene)-2,5-dioxoimidazolidin-1-yl)methyl)-2-fluorobenzonitrile]
5 | ≥ 6.00 | 7.00 to 8.00 | > 8.00 | Cc1c(Cl)ccc2c(/C=C3\NC(=O)N(Cc4ccc(C#N)c(F)c4)C3=O)c[nH]c12 [Compound 21, (Z)-4-((4-((6-chloro-7-methyl-1H-indol-3-yl)methylene)-2,5-dioxoimidazolidin-1-yl)methyl)-2-fluorobenzonitrile]
6 | 5.00 to 6.00 | 7.00 to 8.00 | 7.00 to 8.00 | O=C(NC(CO)CO)C(c1ccc(F)c(F)c1)N1C(=O)N/C(=C\c2c[nH]c3cc(Cl)ccc23)C1=O (stereo not drawn) [Compound 24, (Z)-2-(4-((6-chloro-1H-indol-3-yl)methylene)-2,5-dioxoimidazolidin-1-yl)-2-(3,4-difluorophenyl)-N-(1,3-dihydroxypropan-2-yl)acetamide]
7 | ≥ 6.00 | > 8.00 | > 8.00 | O=C1N/C(=C\c2c[nH]c3cc(Cl)ccc23)C(=O)N1C(CO)c1ccc(F)c(F)c1 (stereo not drawn) [Compound 26]
8 | ≥ 6.00 | > 8.00 | > 8.00 | N#Cc1ccc(C(C(=O)NC(CO)CO)N2C(=O)N/C(=C\c3c[nH]c4c(F)c(Cl)ccc34)C2=O)cc1F (stereo not drawn) [Compound 27, (Z)-2-(4-((6-chloro-7-fluoro-1H-indol-3-yl)methylene)-2,5-dioxoimidazolidin-1-yl)-2-(4-cyano-3-fluorophenyl)-N-(1,3-dihydroxypropan-2-yl)acetamide]
9 | ≥ 6.00 | > 8.00 | > 8.00 | O=C(NC(CO)CO)C(c1ccc(Cl)cc1)N1C(=O)N/C(=C\c2c[nH]c3c(F)c(Cl)ccc23)C1=O (stereo not drawn) [Compound 28, (Z)-2-(4-((6-chloro-7-fluoro-1H-indol-3-yl)methylene)-2,5-dioxoimidazolidin-1-yl)-2-(4-chlorophenyl)-N-(1,3-dihydroxypropan-2-yl)acetamide]
10 | 5.00 to 6.00 | > 8.00 | > 8.00 | N#Cc1ccc(C(C(=O)NC(CO)CO)N2C(=O)N/C(=C\c3c[nH]c4c(F)c(Cl)ccc34)C2=O)cc1 (stereo not drawn) [Compound 29, (Z)-2-(4-((6-chloro-7-fluoro-1H-indol-3-yl)methylene)-2,5-dioxoimidazolidin-1-yl)-2-(4-cyanophenyl)-N-(1,3-dihydroxypropan-2-yl)acetamide]
11 | ≥ 6.00 | > 8.00 | > 8.00 | Cc1c(Cl)ccc2c(/C=C3\NC(=O)N(C(C(=O)NC(CO)(CO)CO)c4ccc(F)c(F)c4)C3=O)c[nH]c12 (stereo not drawn) [Compound 30, (Z)-2-(4-((6-chloro-7-methyl-1H-indol-3-yl)methylene)-2,5-dioxoimidazolidin-1-yl)-2-(3,4-difluorophenyl)-N-(1,3-dyhydroxl-2-(hydroxymethyl)-2-propyl)acetamide]
